Where “and” joins values, the source holds several entries; their conditions need not be identical. Equal values may be shown once. Inconclusive results are not listed.
System: MX-1 breast xenograft, nude mice, tumor weight T/C
Test: NCI In Vivo Anticancer Drug Screen. Data for tumor model Human Mammary Carcinoma MX-1 Xenograft (intrarenal inoculation) in NU/NU Swiss (nude) mice
Settings: endpoint: mean tumor weight change, higher = larger tumour
How it was run: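 Mice carrying the implanted tumor receive either test agent or vehicle. Tumor size or survival is then recorded for both groups. Results are stated as the treated-to-control quotient.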

[1] = dose: 600.0 mg/kg/injection, schedule: Q04DX003 (sc), vehicle: saline with Tween-80
[2] = dose: 1200.0 mg/kg/injection, schedule: Q04DX003 (sc), vehicle: saline with Tween-80

CCCCCc1cc(O)c2c(c1)OC(C)(C)[C@@H]1CCC(C)=C[C@@H]21
T/C (dose: 150.0 mg/kg/injection, schedule: Q04DX003 (sc), vehicle: other): 82 % of control | T/C (dose: 300.0 mg/kg/injection, schedule: Q04DX003 (sc), vehicle: other): 81 % of control | T/C (dose: 1200.0 mg/kg/injection, schedule: Q04DX003 (sc), vehicle: other): 83 % of control

ClCC[N+]12CC[N+](CCCl)(CC1)C2
T/C (dose: 3.12 mg/kg/injection, schedule: Q01DX010 (sc), vehicle: saline with Tween-80): 106 % of control | T/C (dose: 6.25 mg/kg/injection, schedule: Q01DX010 (sc), vehicle: saline with Tween-80): 69 % of control | T/C (dose: 12.5 mg/kg/injection, schedule: Q01DX010 (sc), vehicle: saline with Tween-80): 108 % of control | T/C (dose: 25.0 mg/kg/injection, schedule: Q01DX010 (sc), vehicle: saline with Tween-80): 96 % of control | T/C (dose: 50.0 mg/kg/injection, schedule: Q01DX010 (sc), vehicle: water): 39 % of control and 57 % of control | T/C (dose: 75.0 mg/kg/injection, schedule: Q04DX003 (sc), vehicle: water): 51 % of control | T/C (dose: 100.0 mg/kg/injection, schedule: Q01DX010 (sc), vehicle: water): 7 % of control and 13 % of control | T/C (dose: 135.0 mg/kg/injection, schedule: Q04DX003 (sc), vehicle: water): 45 % of control and 63 % of control | T/C (dose: 150.0 mg/kg/injection, schedule: Q01DX010 (sc), vehicle: water): 15 % of control | T/C (dose: 150.0 mg/kg/injection, schedule: Q04DX003 (sc), vehicle: water): 32 % of control | T/C (dose: 200.0 mg/kg/injection, schedule: Q01DX010 (sc), vehicle: water): -36 % of control and -32 % of control | T/C (dose: 400.0 mg/kg/injection, schedule: Q01DX010 (sc), vehicle: saline with Tween-80): 5 % of control | T/C (dose: 450.0 mg/kg/injection, schedule: Q04DX003 (sc), vehicle: water): 12 % of control and 27 % of control

COC1=C2C[C@@H](C)C[C@@H](OC)[C@@H](O)[C@H](C)/C=C(\C)[C@@H](OC(N)=O)[C@H](OC)/C=C\C=C(/C)C(=O)NC(=CC1=O)C2=O
T/C (dose: 4.0 mg/kg/injection, schedule: Q04DX003 (sc), vehicle: saline): 102 % of control | T/C (dose: 8.0 mg/kg/injection, schedule: Q04DX003 (sc), vehicle: saline): 89 % of control | T/C (dose: 16.0 mg/kg/injection, schedule: Q04DX003 (sc), vehicle: saline): 89 % of control | T/C (dose: 32.0 mg/kg/injection, schedule: Q04DX003 (sc), vehicle: saline): 88 % of control and 94 % of control | T/C (dose: 64.0 mg/kg/injection, schedule: Q04DX003 (sc), vehicle: saline): 85 % of control | T/C (dose: 128.0 mg/kg/injection, schedule: Q04DX003 (sc), vehicle: saline): 66 % of control

O=C(c1cccnc1)c1cc(-c2ccccn2)c(=O)n2ccccc12
T/C (dose: 300.0 mg/kg/injection, schedule: Q04DX003 (sc), vehicle: saline with Tween-80): 66 % of control | T/C [1]: 103 % of control | T/C [2]: 81 % of control | T/C (dose: 2400.0 mg/kg/injection, schedule: Q04DX003 (sc), vehicle: saline with Tween-80): 120 % of control

NC(=S)N/N=C\c1ncccc1OCc1cccc(N)c1
T/C [1]: 75 % of control | T/C [2]: 152 % of control

C=C(C(=O)O)C(N)C(=O)O (stereo not given)
T/C (dose: 300.0 mg/kg/injection, schedule: Q04DX003 (sc), vehicle: suspension in saline): 96 % of control | T/C (dose: 600.0 mg/kg/injection, schedule: Q04DX003 (sc), vehicle: suspension in saline): 78 % of control | T/C (dose: 1200.0 mg/kg/injection, schedule: Q04DX003 (sc), vehicle: suspension in saline): 88 % of control

CC(C)CCCCCCCCCCCCC(=O)NCC(=O)NC1C(C)OC(Nc2ncnc3nc[nH]c23)C(O)C1O (stereo not given)
T/C (dose: 1.0 mg/kg/injection, schedule: Q01DX010 (sc), vehicle: distilled water + Tween-80): 68 % of control | T/C (dose: 2.0 mg/kg/injection, schedule: Q01DX010 (sc), vehicle: distilled water + Tween-80): 75 % of control | T/C (dose: 4.0 mg/kg/injection, schedule: Q01DX010 (sc), vehicle: distilled water + Tween-80): 55 % of control | T/C (dose: 8.0 mg/kg/injection, schedule: Q01DX010 (sc), vehicle: distilled water + Tween-80): 25 % of control
